Laboratory results published in publication PMC5581232 (European journal of medicinal chemistry, 2017).
Like-named read-outs stand apart in the source and are kept apart here.

How the values were obtained:
HBV = assay: Anti-HBV activity: HBV DNA replication; type: cell-based, Hepatitis B virus; conditions: for Anti-HBV activity (in words): HepAD38 cells
[1] = system: HBeAg secretion (HBV cccDNA formation); assay: HBeAg reporter cell-based assay; design: species or system Hepatitis B virus; conditions: for Effect on secretion of HBeAg (in words): 3TC and ETV at 10 μM
HBV Cp149 = HBV Cp149 (Hepatitis B virus genotype D subtype ayw, UniProt P03146); assay: HBV Cp149 capsid formation by negative-stain electron microscopy; type: biochemical; conditions: 20 μM, 1 hr pre-incubation, assembly induced with NaCl overnight
HBV Cp149, sequence (P03146 1-149): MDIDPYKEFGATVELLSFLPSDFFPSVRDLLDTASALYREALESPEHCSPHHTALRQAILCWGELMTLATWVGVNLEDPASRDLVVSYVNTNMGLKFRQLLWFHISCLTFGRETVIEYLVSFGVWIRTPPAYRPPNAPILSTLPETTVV

[2] = Hepatitis B virus, HePAD38, read-out: HBeAg Secretion EC90, HepAD38 cells, ELISA
[3] = read-out: HBeAg Secretion EC90, HepAD38 cells, ELISA

SMILES | Anti-HBV activity (in words) (HBV) | Effect on secretion of HBeAg (in words) ([1]; HepAD38 cells) | Effect on HBV Cp149 capsid formation (morphology, negative-stain TEM) (HBV Cp149) | EC90 [1, 2] [µM] | EC90 [1, 3] [µM] | other results
O=C(NC1(c2ccc(F)c(F)c2)CC1)c1cc(S(=O)(=O)NC2CCCC2)ccc1F [Compound 19, 5-(N-Cyclopentylsulfamoyl)-N-(1-(3,4-difluorophenyl)cyclopropyl)-2-fluorobenzamide] | complete loss of activity | – | – | – | – | –
Nc1ccn([C@@H]2CS[C@H](CO)O2)c(=O)n1 [Compound 3TC, lamivudine, reference compound] | – | no effect | – | – | – | EC50 (HBV; Hepatitis B virus, HePAD38, read-out: HBV DNA – Extracellular EC50): 0.04 ± 0.03 µM
C=C1[C@H](CO)[C@@H](O)C[C@@H]1n1cnc2c(=O)[nH]c(N)nc21.O [ETV, entecavir] | – | no effect | – | – | – | –
CC(C)(NC(=O)c1cccc(S(=O)(=O)NC2CCCC2)c1)c1ccc(F)c(F)c1 [Compound 21, 3-(N-Cyclopentylsulfamoyl)-N-(2-(3,4-difluorophenyl)propan-2-yl)benzamide] | complete loss of activity | – | properly formed HBV Cp149 capsids | – | – | –
O=C(Nc1ccc(F)c(F)c1)c1cc(S(=O)(=O)NC2CCCC2)ccc1F [Compound 4a, 5-(N-Cyclopentylsulfamoyl)-N-(3,4-difluorophenyl)-2-fluorobenzamide] | – | – | form greater numbers of disfigured circular assemblies | 3 to 4 | 4.6 ± 2 | –
O=C(Nc1cc(S(=O)(=O)NC2CCCC2)ccc1F)c1ccc(F)c(F)c1 [Compound 16, N-(5-(N-Cyclopentylsulfamoyl)-2-fluorophenyl)-3,4-difluorobenzamide] | complete loss of activity | – | – | – | – | –
O=C(Nc1ccc(F)c(F)c1)c1cc(S(=O)(=O)N2CC(F)(F)C2)ccc1F [Compound 4f, 5-((3,3-Difluoroazetidin-1-yl)sulfonyl)-N-(3,4-difluorophenyl)-2-fluorobenzamide] | – | – | a large number of incomplete, but typically spherical capsids aggregated into clusters | 3 to 4 | 3.2 ± 0.01 | –
CCOC(=O)C1=C(CN2CCOCC2)NC(c2nccs2)=NC1c1ccc(F)cc1Br (stereo not shown) [GLS-4] | – | reduced secretion of HBeAg | – | 2 | 1.9 ± 0.04 | –
